Reference: patent US20250289827A1, “MORPHIC FORMS OF A MUTANT BRAF DEGRADER AND METHODS OF MANUFACTURE THEREOF” (C4 THERAPEUTICS, INC., priority 2022, published 2025)

Test: Stability study for Compound 1 Form A (storage conditions)
Type: physicochemical
[1] = 25° C. ± 2° C./60% RH ± 5% RH, 3 M
[2] = 25° C. ± 2° C./60% RH ± 5% RH, 6 M
[3] = 40° C. ± 2° C./75% RH ± 5% RH, 3 M
[4] = 40° C. ± 2° C./75% RH ± 5% RH, 6 M

## CCN(C)S(=O)(=O)Nc1ccc(F)c(Oc2ccc3ncn([C@H]4COC5(CCN(C(=O)CC6(O)CCN(c7cc8c(cc7F)c(N7CCC(=O)NC7=O)nn8C)CC6)CC5)C4)c(=O)c3c2)c1C#N [Compound 1 Form A]
5 ± 3° C., 6 M
  Appearance: white solid
  Assay by UPLC (% w/w): 92.0% w/w
  Chiral purity by HPLC (% area): 99.2% area
  Related Substances by UPLC (% area), Total Impurities: 2.8% area
  Water Content by KF (% w/w): 4.7% w/w
  XRPD: Form A
5 ± 3° C., 25° C./60% RH, 30° C./65% RH, 40° C./75% RH
  Stability study outcome (appearance, water content, chiral purity, assay, related substance): meet the acceptance criteria
[1]
  Assay by UPLC (% w/w): 93.3% w/w
  Chiral purity by HPLC (% area): 99.2% area
  Related Substances, UPLC (% area), Total Impurities: 2.6% area
  Water Content by KF (% w/w): 3.6% w/w
  XRPD: Form A
[2]
  Assay by UPLC (% w/w): 92.9% w/w
  Chiral purity by HPLC (% area): 99.2% area
  Related Substances, UPLC (% area), Total Impurities: 2.9% area
  Water Content by KF (% w/w): 4.2% w/w
  XRPD: Form A
30 ± 2° C./65 ± 5% RH, 6 M
  Appearance: white solid
  Assay by UPLC (% w/w): 92.4% w/w
  Chiral purity by HPLC (% area): 99.2% area
  Related Substances, UPLC (% area), Total Impurities: 3.0% area
  Water Content by KF (% w/w): 3.8% w/w
  XRPD: Form A
[3]
  Assay by UPLC (% w/w): 92.2% w/w
  Chiral purity by HPLC (% area): 99.2% area
  Related Substances, UPLC (% area), Total Impurities: 2.7% area
  Water Content by KF (% w/w): 3.9% w/w
  XRPD: Form A
[4]
  Assay by UPLC (% w/w): 92.5% w/w
  Chiral purity by HPLC (% area): 99.2% area
  Related Substances, UPLC (% area), Total Impurities: 3.3% area
  Water Content by KF (% w/w): 4.5% w/w
  XRPD: Form A
Initial
  Appearance: white solid
  Assay by UPLC (% w/w): 97.3% w/w
  Chiral purity by HPLC (% area): 99.2% area
  Related Substances by UPLC (% area), Total Impurities: 2.6% area
  Water Content by KF (% w/w): 0.59% w/w
  XRPD: Form A
Each stability condition
  Water content trend: increased overtime
